Experimental data published in patent US20100068297A1, “Antimicrobial Composition” (NATURE THERAPEUTICS LIMITED, priority 2006, published 2010).
Where “and” joins values, the source holds several entries; their conditions need not be identical. Equal entries are not always repeated.

Tests used:
[1] = system: ESβL Pseudomonas aeruginosa clinical isolates; test: Suspension test, aqueous preparations, 30 minutes; format: cell-based; conditions: no Vitamin C, nine isolates, listed as Cu(II)
Method: P. aeruginosa isolates were removed from the freezer and first passaged on nutrient agar twice before use. Overnight cultures on nutrient agar were then suspended in Ringer's solution (Oxoid, U.K.) to a turbidity equivalent to 0.5 McFarland (1.5×10^8 CFU/ml).
The appropriate bacterial dilution was prepared and 50 μl placed in a sterile Eppendorf micro-centrifuge tube with a 100 μl of the extract/metal salt solution. After exposure of the bacteria for 30 minutes at room temperature, the activity of the bactericidal agent was neutralized by adding an equal volume of 2% (v/v) Tween-80 (Sigma Chemical Co., UK) in Lambda buffer (Stewart et al. 1998). Serial dilutions were prepared in Ringer's solution (10^−5), 10 μl of each dilution is spotted on nutrient agar plate and incubated for 24 hours at 37° C. Each assay was conducted in triplicate.
The assay was carried out as described above with the following addition: Vitamin C was added to the metal ion solution immediately prior to mixing with the PRE. Aliquots of Vitamin C were made to give final metal ion:Vitamin C ratios (and Vitamin C concentrations) of 1:1 (4.8 mM), 1:5 (24 nM), 1:20 (96 mM) (metal salt:Vitamin C). 700 μl of this solution was then added to PRE.

Ps. aeruginosa = test: Tea extracts with metal salts, suspension assay 30 min; format: cell-based, Pseudomonas aeruginosa; conditions: Lambda buffer control
Method: (§1) Tea infusions were prepared as previously with boiling sterilized distilled water. After 10 minutes, the extracts are removed from the beaker into sterilized universal tubes. The pH of these extracts was neutralized using a 1 M NaOH solution. The extracts are refrigerated, used within 4 days and without further treatment. Overnight cultures of the Gram-positive strain (Staph. aureus) and the Gram-negative strains (Ps. aeruginosa and Prot. mirabilis) were suspended in Ringers solution to a turbidity equivalent to 0.5 McFarland (1.5×10^8 CFU/ml). Metal salts were added to the optimum tea extracts immediately before the assay was conducted. […] The appropriate bacterial dilution was prepared and 50 μl of that was placed in a sterile Eppendorf micro-centrifuge tube with a 100 μl of the extract/metal salt solution. […] Serial dilutions were prepared in Ringer's solution, 10 μL aliquots of each dilution were spotted onto nutrient agar plates and incubated aerobically for 24 hours at 37° C. Each assay was conducted in triplicate.

Staph. aureus = test: as above; format: cell-based, Staphylococcus aureus; conditions: Lambda buffer control
Method: as §1

PVL positive cMRSA = test: Suspension test, 2 hours, clinical isolates; format: cell-based, Staphylococcus aureus; conditions: 2 hours exposure, 10 clinical isolates
Method: Clinical isolates of methicillin resistant (n=10), methicillin sensitive (n=10) Staphylococcus aureus (MRSA and MSSA) and Panton-Valentine Leukocidin producing cMRSA (n=10) were used in the study. The MRSA and MSSA isolates were collected from the Royal Marsden Hospital (London, UK) and the cMRSA isolates were collected from the Devon and Exeter Hospital (UK). The isolates were cultured over night on nutrient agar (Oxoid), aerobically at 37° C. and then frozen in cyrovials (Pro-labs) at −80° C. until required. Prior to use all isolates were passaged twice on nutrient agar aerobically at 37° C. In all assays culture were prepared by using overnight cultures on nutrient agar that were then suspended in Ringer's solution (Pro-Lab, U.K.) to a turbidity equivalent to 0.5 McFarland (1.5×10^8 cfu ml^−1).
Briefly, overnight cultures on nutrient agar were then suspended in Ringer's solution (Oxoid, U.K.) to a turbidity equivalent to 0.5 McFarland (1.5×10^8 CFU/ml).
The appropriate bacterial dilution was prepared and 50 μL it placed in a sterile Eppendorf micro-centrifuge tube with a 100 μL of the extract/metal salt solution. Following treatment of the bacteria for 2 hours at room temperature, the activity of the bactericidal agent was neutralized by adding an equal volume of 2% (v/v) Tween-80 (Sigma Chemical Co., UK) in Lambda buffer. […]

Prot. mirabilis = test: Tea extracts with metal salts, suspension assay 30 min; format: cell-based, Proteus mirabilis; conditions: Lambda buffer control
Method: as §1

Pseudomonas aeruginosa = test: In vitro bactericidal assay, control strain; format: cell-based; conditions: metal ion added to PRE
Method: The control strain was Pseudomonas aeruginosa for standard experimentation, ie determining optimal preparations.
Growth conditions: on nutrient agar provided by Oxoid Ltd for 24 hrs at 37° C.
The inventor established a functional in vitro bactericidal assay to screen a variety of formulations (cream, aqueous and ointment). This assay involved adding 0.5 g of ointment to 10 ml of water and vortexing prior to a standard suspension test using 50 microlitres of bacterial cell suspension to a turbidity of 0.5 McFarland solution (bacterial cell suspension equal to 1.5×10^8) plus 100 microlitres of the ointment solution. After incubation in the dark at room temperature for 30 mins, serial dilutions (from 10^−1 to 10^−5) were carried out on nutrient agar.
In terms of mechanisms of action, the preference for using metal ions in the reduced state led to the incorporation of studies using reductants to stabilize this oxidation state, and prolong and enhance activity. Thus, the reductant Vitamin C was added in three different doses after pre-incubating the PRE/metal ions mixtures for 30 minutes, and the results are shown in FIG. 2.
The longer term activities of the PRE:metal salt(s) mixtures were investigated after a period of 24 and 48 hours, and the results are shown in FIG. 4. […] The results shown are for one system only as an example.

MRSA = test: Micro-dilution MIC, alone and in combination; format: cell-based, Staphylococcus aureus; conditions: each table line is a group of isolates; 24 h
Method: The plates were prepared as follows, 50 μl of four-times strength Iso-Sensitest broth was added to the first row of wells and 50 μl of double strength Iso-Sensitest broth was added to all remaining wells. To the first row of wells 50 μl of the PRE was added and mixed, 50 μl of broth from row A was transferred to row B and mixed, this process was continued to row E Finally, 50 μl of broth was removed from well F and discarded. Then the overnight cultures were suspended in Ringers solution to a turbidly of 0.5 McFarland (1.5×10^8 cfu/ml). 50 μl of suspension were added to well A (final concentration of PRE in well A=200 mg/ml) through to G All samples were carried out in Triplicate. All plates were incubated at 37° C. for 24 hours. After incubation 10 μl of broth from each well was spotted onto nutrient agar and incubated at 37° C. for 24 hours. After incubation the plates were examined to determine breakpoints by the presence or absence of growth.

E. coli = test: Suspension assay, 30 minutes exposure, viable count; format: cell-based; conditions: no Vitamin C
Method: All reagents were purchased from Sigma-Aldrich (Poole, Dorset) and distilled water was used throughout. Overnight cultures on nutrient agar were then suspended in Ringer's solution (Oxoid, U.K.) to a turbidity equivalent to 0.5 McFarland (1.5×10^8 CFU/ml). […] The final solution was protected from light (Stewart et al. 1998. J. Appl Microbiol 84:777-783). The appropriate bacterial dilution was prepared and 50 μl placed in a sterile Eppendorf micro-centrifuge tube with a 100 μl of the extract/metal salt solution. […] Serial dilutions were prepared in Ringer's solution (10^−5), 10 μl of each dilution is spotted on nutrient agar plate and incubated for 24 hours at 37° C. Each assay was conducted in triplicate. The assay was carried out as described above with the following addition: […]

SMILES	reduction in growth (mean values) [1]	bactericidal efficacy, reduction in CFU/mL (factor) (Ps. aeruginosa)	bactericidal efficacy, reduction in CFU/mL (factor) (Staph. aureus)	isolates in which the 10^3 log reduction in growth was observed (PVL positive cMRSA)	reduction in growth (PVL positive cMRSA)	bactericidal efficacy, reduction in CFU/mL (factor) (Prot. mirabilis)	activity of the metal ion solution upon addition to PRE (Pseudomonas aeruginosa)	MIC, agent alone (MRSA)	reduction of surviving population / growth, factor compared to the buffer (E. coli)
O=S(=O)([O-])[O-].[Cu+2] [CuSO4, copper (II) sulfate]	~10^1 log10 and ~10^2 log10	10^2	10^4	60%	10^3 log10	10^2	highest activities	3125 µg/mL and 1563 µg/mL	10^4
O=S(=O)([O-])[O-].[Fe+2] [FeSO4, iron (II) sulfate]		10^3	poor efficacy			10^3	highest activities		
O=S(=O)([O-])[O-].[Mn+2] [MnSO4]		minimal	poor efficacy			minimal	little or no activity		
O=S(=O)([O-])[O-].[Zn+2] [ZnSO4]							little or no activity		
